Measured values published in patent publication US5663346A, “Substituted azaindolylidene compounds and process for their preparation” (Pharmacia S.p.A., priority 1994, dated 1997).
pIC50: −log10 of the molar value.

Legend:
[1] = molecular target: p45 v-abl tyrosine kinase; test: p45 v-abl Kinase Assay ((Val5)-Angiotensin II phosphorylation); format: biochemical, Abelson murine leukemia virus; conditions: in-vitro; (Val5)-Angiotensin II 2 mM, ATP 50 mM, 40 ng abl-kinase, pH 8.0; read-out: Inhibition of p-45 v-abl kinase, IC50
Method: p45 v-abl Kinase Purification
The enzyme used in our test was the p45 v-abl tyrosine kinase which represents the catalytic domain of the Abelson tyrosine kinase (isolated from the Abelson murine leukemia virus). The p45 v-abl kinase was produced and isolated as described by Wang et al. in J. Biol. chem 260, 64 (1985) and by Ferguson et al. in J. Biol. Chem 260, 3652 (1985) and in Biochem J. 257, 321 (1989).
(Val^5 )-Angiotensin II phosphorylation was performed by incubation with 40 ng of purified abl-kinase and (g-^32 p)-ATP, in […] of buffer containing Tris-HCl 25 mM, Ph 8.0, MgCl2 10 Mm and dithiothreitol 0.1 Mm (kinase buffer). The reaction mixture was incubated for the indicated time at […] and the reaction stopped by adding […] of 5% trichloroacetic acid. After a brief incubation on ice, tubes were centrifuged. The supernatants were spotted on phosphocellulose paper squares (Whatman P-81) and washed extensively in acetic acid. The radioactivity bound to dried phosphocellulose squares was measured in a liquid scintillation counter. IC50 values were. calculated from triplicated determinations of each experimental point. Each inhibitor was tested at concentrations ranging from […] in the presence of fixed concentrations of peptide (2 mM) and ATP (50 mM).

K562 cells = test: K562 cell Growth Inhibition Assay; format: cell-based; conditions: Homo sapiens, 66 h incubation, [3H]-Thymidine incorporation, with or without 10% foetal calf serum
Method: In-vivo Assay K562 cell Growth Inhibition Assay 1 ml of K562 cells, grown in suspension, were incubated for 66 h with or without 10% foetal calf serum in the presence of 1 mCi of [^3 H]-Thymidine. Cells were harvested, washed three times in cold PBS and treated with 5% trichloroacetic acid for 5 min. on ice. […] The extract was counted in a liquid scintillation counter. The inhibitory activity data for a representative compound according to the present invention, obtained both in the in-vitro p45 v-abl kinase assay and in the in-vivo human chronic myeloid leukemia K562 cell growth inhibition assay described above, are set out in Table 1.

Nc1ccc2c(c1)C(=Cc1c[nH]c3ncccc13)C(=O)N2 [5-amino-3-[(7-azaindol-3-yl)methylen]-2-oxindole ditrifluoroacetate]
pIC50 [1]: 7.05
pIC50 (K562 cells): 5.06

N#Cc1ccc2c(c1)C(=Cc1c[nH]c3ncccc13)C(=O)N2 [5-cyano-3-[(7-azaindol-3-yl)methylen]-2-oxindole]
pIC50 [1]: 6.01
pIC50 (K562 cells): 5.60
